According to patent US20260262643A1, “HERBICIDAL BENZOXAZINES” (FMC CORPORATION, priority 2022, published 2026):

Key:
soybean [1] = assay: Test A postemergence; assay type: in vivo, Glycine max; settings: postemergence, 10 days
In short: (§1)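 Loam/sand soil; pre-em directed soil spray at planting, post-em spray at 1–2 leaf (2–10 cm). Compound in non-phytotoxic solvent + surfactant. Greenhouse 10 d; visual injury vs untreated, 0 = no effect, 100 = complete control.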

pigweed, palmer [2] = assay: Test A postemergence; assay type: in vivo, Amaranthus palmeri; settings: postemergence, 10 days
In short: as §1

wheat [3] = assay: Test A preemergence; assay type: in vivo, Triticum aestivum; settings: visual injury after 10 days, 0 to 100 scale, 0 is no effect, 100 is complete control
In short: as §1

barnyardgrass [4] = assay: Test A preemergence; assay type: in vivo, Echinochloa crusgalli; settings: visual injury after 10 days, 0 to 100 scale, 0 is no effect, 100 is complete control
Source text: (§2) Seeds of plant species selected from barnyardgrass (Echinochloa crusgalli), blackgrass (Alopecurus myosuroides), corn (Zea mays), foxtail, giant (giant foxtail, Setaria faberi), goosegrass (Eleusine indica), kochia (Bassia scoparia), oat, wild (wild oat, Avena fatua), pigweed, palmer (palmer amaranth, palmer pigweed, Amaranthus palmeri), Pigweed, Redroot (redroot pigweed, Amaranthus retroflexus), ragweed (common ragweed, Ambrosia artemisiifolia), ryegrass, Italian (italian ryegrass, Lolium multiflorum), soybean (Glycine max), and wheat (Triticum aestivum) were planted into a blend of loam soil and sand and treated preemergence with a directed soil spray using test chemicals formulated in a non-phytotoxic solvent mixture which included a surfactant. At the same time, plants selected from these crops and weed species and also galium (catchweed bedstraw, Galium aparine) and horseweed (Erigeron canadensis) were planted in pots containing the same blend of loam soil and sand and treated with postemergence applications of test chemicals formulated in the same manner. Plants ranged in height from 2 to 10 cm and were in the one- to two-leaf stage for the postemergence treatment. Treated plants and untreated controls were maintained in a greenhouse for 10 days, after which time all treated plants were compared to untreated controls and visually evaluated for injury. Plant response ratings, summarized in Table A, are based on a 0 to 100 scale where 0 is no effect and 100 is complete control. A dash (-) response means no test result.

corn [5] = assay: Test A postemergence; assay type: in vivo, Zea mays; settings: postemergence, 10 days
In short: as §1

rice = assay: Test B flooded paddy test; assay type: in vivo, Oryza sativa; settings: 250 g ai/ha, Flood, 13 days, 0 to 100 scale (0 no effect, 100 complete control)
In short: (§3)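 Plants at the 2-leaf stage were flooded to 3 cm above the soil, and test compounds were applied directly into the paddy water, with that depth held throughout. After 13 days in a greenhouse, injury was rated visually against untreated controls on a 0–100 scale (100 = complete control).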

wheat [6] = assay: Test A postemergence; assay type: in vivo, Triticum aestivum; settings: postemergence, 10 days
In short: as §1

ragweed [7] = assay: Test A postemergence; assay type: in vivo, Ambrosia artemisiifolia; settings: postemergence, 10 days
In short: as §1

blackgrass [8] = assay: Test A preemergence; assay type: in vivo, Alopecurus myosuroides; settings: visual injury after 10 days, 0 to 100 scale, 0 is no effect, 100 is complete control
In short: as §1

barnyardgrass [9] = assay: Test A postemergence; assay type: in vivo, Echinochloa crusgalli; settings: postemergence, 10 days
Source text: as §2

oat, wild [10] = assay: Test A postemergence; assay type: in vivo, Avena fatua; settings: postemergence, 10 days
In short: as §1

blackgrass [11] = assay: Test A postemergence; assay type: in vivo, Alopecurus myosuroides; settings: postemergence, 10 days
In short: as §1

ducksalad = assay: Test B flooded paddy test; assay type: in vivo, Heteranthera limosa; settings: 250 g ai/ha, Flood, 13 days, 0 to 100 scale (0 no effect, 100 complete control)
In short: as §3

pigweed, palmer [12] = assay: Test A preemergence; assay type: in vivo, Amaranthus palmeri; settings: visual injury after 10 days, 0 to 100 scale, 0 is no effect, 100 is complete control
In short: as §1

galium = assay: Test A postemergence; assay type: in vivo, Galium aparine; settings: postemergence, 10 days
In short: as §1

sedge, umbrella = assay: Test B flooded paddy test; assay type: in vivo, Cyperus difformis; settings: 250 g ai/ha, Flood, 13 days, 0 to 100 scale (0 no effect, 100 complete control)
In short: as §3

soybean [13] = assay: Test A preemergence; assay type: in vivo, Glycine max; settings: visual injury after 10 days, 0 to 100 scale, 0 is no effect, 100 is complete control
In short: as §1

kochia [14] = assay: Test A preemergence; assay type: in vivo, Bassia scoparia; settings: visual injury after 10 days, 0 to 100 scale, 0 is no effect, 100 is complete control
In short: as §1

ryegrass, Italian [15] = assay: Test A preemergence; assay type: in vivo, Lolium multiflorum; settings: visual injury after 10 days, 0 to 100 scale, 0 is no effect, 100 is complete control
In short: as §1

ryegrass, Italian [16] = assay: Test A postemergence; assay type: in vivo, Lolium multiflorum; settings: postemergence, 10 days
In short: as §1

corn [17] = assay: Test A preemergence; assay type: in vivo, Zea mays; settings: visual injury after 10 days, 0 to 100 scale, 0 is no effect, 100 is complete control
In short: as §1

barnyardgrass [18] = assay: Test B flooded paddy test; assay type: in vivo, Echinochloa crus-galli; settings: 250 g ai/ha, Flood, 13 days, 0 to 100 scale (0 no effect, 100 complete control)
In short: as §3

horseweed = assay: Test A postemergence; assay type: in vivo, Erigeron canadensis; settings: postemergence, 10 days
In short: as §1

kochia [19] = assay: Test A postemergence; assay type: in vivo, Bassia scoparia; settings: postemergence, 10 days
In short: as §1

ragweed [20] = assay: Test A preemergence; assay type: in vivo, Ambrosia artemisiifolia; settings: visual injury after 10 days, 0 to 100 scale, 0 is no effect, 100 is complete control
In short: as §1

oat, wild [21] = assay: Test A preemergence; assay type: in vivo, Avena fatua; settings: visual injury after 10 days, 0 to 100 scale, 0 is no effect, 100 is complete control
In short: as §1

[22] = 125 g ai/ha, 0 to 100 scale, 0 no effect, 100 complete control
[23] = 500 g ai/ha, visual injury, 0 to 100 scale (0 no effect, 100 complete control)

C[C@H]1CN(C(=O)c2cc(C3CC3)cc(-n3cncn3)c2)c2cccc(Cl)c2O1 [Compound 136]
Soybean plant response rating (soybean [1]; [22]): 100
Plant response rating, Soybean (soybean [1]; [23]): 100
Pigweed, Palmer plant response rating (pigweed, palmer [2]; [22]): 30
Plant response rating, Pigweed, Palmer (pigweed, palmer [2]; [23]): 90
Plant response rating, Wheat (wheat [3]; 125 g ai/ha): 10
Plant response rating, Wheat (wheat [3]; 500 g ai/ha): 30
Plant response rating, Barnyardgrass (barnyardgrass [4]; 125 g ai/ha): 30
Plant response rating, Barnyardgrass (barnyardgrass [4]; 500 g ai/ha): 90
Corn plant response rating (corn [5]; [22]): 30
Plant response rating, Corn (corn [5]; [23]): 90
Plant response rating, Rice (rice): 0
Wheat plant response rating (wheat [6]; [22]): 20
Plant response rating, Wheat (wheat [6]; [23]): 30
Ragweed plant response rating (ragweed [7]; [22]): 20
Plant response rating, Ragweed (ragweed [7]; [23]): 30
Plant response rating, Blackgrass (blackgrass [8]; 125 g ai/ha): 70
Plant response rating, Blackgrass (blackgrass [8]; 500 g ai/ha): 90
Barnyardgrass plant response rating (barnyardgrass [9]; [22]): 20
Plant response rating, Barnyardgrass (barnyardgrass [9]; [23]): 70
Oat, Wild plant response rating (oat, wild [10]; [22]): 10
Plant response rating, Oat, Wild (oat, wild [10]; [23]): 30
Blackgrass plant response rating (blackgrass [11]; [22]): 90
Plant response rating, Blackgrass (blackgrass [11]; [23]): 100
Plant response rating, Ducksalad (ducksalad): 0
Plant response rating, Pigweed, Palmer (pigweed, palmer [12]; 125 g ai/ha): 70
Plant response rating, Pigweed, Palmer (pigweed, palmer [12]; 500 g ai/ha): 100
Galium plant response rating (galium; [22]): 80
Plant response rating, Galium (galium; [23]): 100
Plant response rating, Sedge, Umbrella (sedge, umbrella): 0
Plant response rating, Soybean (soybean [13]; 125 g ai/ha): 10
Plant response rating, Soybean (soybean [13]; 500 g ai/ha): 60
Plant response rating, Kochia (kochia [14]; 125 g ai/ha): 0
Plant response rating, Kochia (kochia [14]; 500 g ai/ha): 70
Plant response rating, Ryegrass, Italian (ryegrass, Italian [15]; 125 g ai/ha): 80
Plant response rating, Ryegrass, Italian (ryegrass, Italian [15]; 500 g ai/ha): 90
Ryegrass, Italian plant response rating (ryegrass, Italian [16]; [22]): 60
Plant response rating, Ryegrass, Italian (ryegrass, Italian [16]; [23]): 90
Plant response rating, Corn (corn [17]; 125 g ai/ha): 0
Plant response rating, Corn (corn [17]; 500 g ai/ha): 30
Plant response rating, Barnyardgrass (barnyardgrass [18]): 0
Horseweed plant response rating (horseweed; [22]): 0
Plant response rating, Horseweed (horseweed; [23]): 0
Kochia plant response rating (kochia [19]; [22]): 30
Plant response rating, Kochia (kochia [19]; [23]): 70
Plant response rating, Ragweed (ragweed [20]; 125 g ai/ha): 0
Plant response rating, Ragweed (ragweed [20]; 500 g ai/ha): 20
Plant response rating, Oat, Wild (oat, wild [21]; 125 g ai/ha): 20
Plant response rating, Oat, Wild (oat, wild [21]; 500 g ai/ha): 30
